# “And” between values parts separate entries of the source, which are not always exact repeats. Identical values can stand only once.
# How the values were obtained:
# Format in all cases: in vivo, mice
# [1] = system: vasculature within the murine chronic granulomatous air pouch; experiment: further protocol: air pouch granuloma grown 7 days untreated, then topical daily treatment (regression); details: for VI: mean vascularity index; for Carmine / Dry wt. gran.: mean
# Protocol: In another protocol, the use of the air pouch on the mice was once again employed. Only this time, after formation of the pouches and injection of .5 ml Freund's complete adjuvant (FCA) supplemented with 0.1% croton oil, the granuloma in the mice were permitted to grow for 7 days (they were left unhealed for 1 week). […] The granulomatous tissue was dissected and treated as previously described. The weight of the granuloma (including the carmine red dye) and weight of the carmine red dye (which displaced the blood) were determined for each mouse sacrificed at each stage (after 7, 14 and 21 days). The vascularity index (VI) was calculated and the mean vascularity index was calculated for each group as follows: Vascularity Index (VI) =(weight of carmine red dye in GRANULOMA)/(Weight of GRANULOMA (including carmine red dye)) [formula]
# [2] = system: vasculature within the murine chronic granulomatous air pouch; experiment: murine chronic granulomatous air pouch, carmine vascular cast; dosing daily from induction for 6 days; details: Topical, n = 8 (Table Three summary)
# [3] = system: vasculature within the murine chronic granulomatous air pouch; experiment: as above; details: for effect on the tissue vascularity: daily
# Protocol: The Applicants chose a simple model of murine angiogenesis induced with a chronic granulomatous reaction to Freund's complete adjuvant in croton oil. The Applicants assessed this process using a modification of this method by the formation of an intravascular cast incorporating carmine red. Chronic granulomatous air pouches were induced by the sc injection of 3 ml air into anaesthetized mice (25-30 g, Tuck Original) and 0.5 ml Freund's complete adjuvant with 0.1% croton oil 24 hours later. The mice were dosed for 6 days and the vascular content assessed by the formation of a vascular cast. This was formed by the intravenous injection of 1 ml 25% carmine red in 10% gelatin at 40°C into warmed mice. This overcame any pharmacological or temperature-related alterations in peripheral vasomotor tone which may have invalidated the results. The carcasses were chilled and the granulomatous air pouch linings dissected. These were dried at 56°C, weighed, and papain digested. The dye was then be dissolved by the addition of 1 ml 0.05 M NaOH, and the samples were then centrifuged at 2500 g for 20 minutes. After these were filtered, the absorbances were read at 490 nm using a multiwell plate reader (Biotek). The results were then expressed as either µg dye/mg dry weight of tissue. […] On the seventh day after induction the vascularity of the tissue was assessed. […] The formation of a subcutaneous air pouch in the dorsum of mice allows the formation of a lining which responds to produce a chronic inflammatory lesion in response to various antigens, irritants and foreign bodies. It can also be used for the introduction of drugs and various other treatments into the site of inflammation and the collection of inflammatory exudate. […] For this experiment female mice (TO. 25-30g, 10 per group) were lightly anesthetized with hypnorm/hypnoval. Air pouches were formed by the subcutaneous injection of 3 ml of filter-sterilized air, into the dorsum of each mouse. After 24 hours, chronic inflammation was induced in the air pouch lining by the injection of 0.5 ml Freund's complete adjuvant (FCA) supplemented with 0.1% croton oil. Animals were dosed daily from the time o: injection of FCA/croton oil, for 6 Days. At which point the analysis was performed. […] Each mouse was then placed into a water jacketed incubation chamber at 37°C and injected i.v. with 1 ml of 15% carmine dye in 10% gelatin (in Hanks balanced salt solution) with syringe and solution prewarmed to 40°C. Cadavers were then chilled at 4°C for 4 hours. The granulomatous tissue was dissected free and dried in an oven at 56°C for 48 hours. The dried granuloma was weighed and then digested in 9 ml of papain solution (12-Units/ml in 0.05 M phosphate buffer, pH 7.0, supplemented with 0.33g/l N-acetyl cysteine), at 56°C for 48 hours. The digests were then made up to 10 ml with 5.0M NaOH and vortexed, to solubilise the dye and centrifuged. The digests were filtered through 0.2µm cellulose nitrate membranes and […] samples aliquoted into 96 well plates and analyzed for dye content by spectrophotometric analysis at […] using a microplate reader. Vascular volume was calculated as carmine content per mg dry mass of tissue.
# [4] = 2 week (one week of topical application)
# [5] = 3 week (two weeks of topical application)
# [6] = i-pouch, n = 10 (Table Three summary)
# [7] = intra-pouch injection, daily 6 days, group mean, N = 10
smiles,measurement,setting,value
"O=C(O)Cc1ccccc1Nc1c(Cl)cccc1Cl [diclofenac (diclo), Diclofenac]",VI,"[1]; 2 week (one week of topical application), listed as Diclo Alone",1.3 µg/mg
same,VI,"[1]; 2 week (one week of topical application), listed as aq. cream/Diclo",1.300 µg/mg
same,Carmine,[1]; [4],108.63 µg
same,Dry wt. gran.,[1]; [4],84.41 mg
same,Carmine,[1]; [5],150.07 µg
same,Dry wt. gran.,[1]; [5],112.19 mg
same,Carmine dye (ug) Mean,[2],187.3 µg
same,Granuloma dry wt.(mg) Mean,[2],166.3 mg
same,ug.dye/mg.gramuloma Mean,[2],1.216 ug.dye/mg.gramuloma
same,Carmine dye (ug) Mean,[3]; [6],92.6 µg
same,ug.dye/mg.gramuloma Mean,[3]; [6],0.7363 ug.dye/mg.gramuloma
same,effect on the tissue vascularity,"[3]; intra-lesional injection, assessed on seventh day (Figure 1(b))",no significant effect
same,Absorbness / Absorbous,"[3]; intra-pouch injection, daily 6 days, absorbance at 490 nm of digest, individual animals, listed as Saline + diclo",0.773 and 0.242 and 0.730 and 0.400 and 0.409 and 0.262 and 0.402 and 0.468
same,ug dye mg,"[3]; intra-pouch injection, daily 6 days, carmine per mg dry tissue, individual animals, listed as Saline + diclo",1.194 ug dye mg and 0.320 ug dye mg and 1.577 ug dye mg and 1.050 ug dye mg and 0.674 ug dye mg and 0.442 ug dye mg and 0.526 ug dye mg and 0.471 ug dye mg and 0.586 ug dye mg and 0.520 ug dye mg
same,Dry wt,"[3]; intra-pouch injection, daily 6 days, dried granuloma, individual animals, listed as Saline + diclo",158 mg and 99 mg (2×) and 124 mg and 162 mg and 170 mg and 122 mg
same,ug carmine,[3]; [7],92.75 µg
same,ug dye mg,[3]; [7],0.7363 ug dye mg
same,ug carmine,"[3]; intra-pouch injection, daily 6 days, individual animals, listed as Saline + diclo",166 µg and 50.5 µg and 156 µg and 104 µg and 86.7 µg and 54.8 µg and 85.2 µg and 63.7 µg and 99.5 µg and 61.3 µg
same,effect on the tissue vascularity,"[3]; topical, assessed on seventh day (Figure 1(a))",no significant effect

# — patent EP0695187B1, “INHIBITION, CONTROL AND REGRESSION OF ANGIOGENESIS WITH HYALURONIC ACID OR HYALURONIC ACID AND NSAID” (JAGOTEC AG, priority 1993, dated 1994)
